How the values were obtained:
Type in all cases: cell-based, human
LNCaP cells [1] = assay: Cytotoxicity: cell morphology of treated LNCaP cells; details: LNCaP cells treated for 48 h, 10 μM
Description: From this extract, the pure active compound, Sintokamide A (CB3.1) was isolated and to ensure that the inhibitory effect of CB3.1 was not due to generally cytotoxicity, cell morphology of LNCaP cells was examined. […] Cells treated with R1881 are also shown to provide an indication of cell number and for comparison.

LNCaP cells [2] = assay: Androgen-dependent proliferation of LNCaP cells (BrdU incorporation); details: 5 μg/ml, 1 hr before R1881 0.1 nM, 3 days
Experimental: (§1) BrdU incorporation was measured 3 days later to indicate changes in proliferation in response to androgen (see FIG. 3B).

PC3 cells = assay: Proliferation of PC3 cells (BrdU incorporation); details: 5 μg/mL
Description: LNCaP cells were employed initially for all experiments because they are well-differentiated human prostate cancer cells in which ligand-independent activation of the AR by FSK has been characterized (Nazareth et al 1996 J. Biol. Chem. 271, 19900-19907; and Sadar 1999 J. Biol. Chem. 274, 7777-7783). LNCaP cells express endogenous AR and secrete prostate-specific antigen (PSA) (Horoszewicz et al 1983 Cancer Res. 43, 1809-1818). LNCaP cells can be grown either as monolayers in cell culture or as tumors in the well-characterized xenograft model that progresses to androgen independence in castrated hosts (Sato et al 1996 J. Steroid Biochem. Mol. Biol. 58, 139-146; Gleave et al 1991 Cancer Res. 51, 3753-3761; Sato et al 1997 Cancer Res. 57, 1584-1589; and Sadar et al 2002 Mol. Cancer Ther. 1(8), 629-637). […] Small molecules that specifically target the AR-NTD should have no effect on PC3 cells. This means that they should not alter the proliferation of PC3 cells if they specifically block the AR to mediate their inhibitory effects. R1881 was employed since it is stable and avoids problems associated with the labile physiological ligand dihydrotestosterone (DHT). Reporter specificity may be determined using several alternative reporter gene constructs. […]
as §1

In the case of CCC(=O)N[C@H](C[C@H](C)C(Cl)(Cl)Cl)C(=O)N1C(=O)C=C(OC)[C@@H]1C[C@H](C)C(Cl)Cl [CB3.1, Sintokamide A], the “signs of toxicity (cell morphology)” value (LNCaP cells [1]) was “no obvious signs of toxicity”, the “androgen-induced proliferation (BrdU incorporation)” value (LNCaP cells [2]) was “reduced proliferation” and the “proliferation of PC3 cells (BrdU incorporation)” value (PC3 cells) was “did not block proliferation”.

— US9487479B2, “Small molecule inhibitors of N-terminus activation of the androgen receptor” (The University of British Columbia, priority 2008, dated 2016)
